Results reported in patent US10272055B2, “Therapeutic compounds and methods” (Regents of the University of Minnesota, priority 2014, dated 2019).
“Also recorded” adds a separate entry of the source.

Key:
CD31 [1] = assay: Angiogenesis by CD31 staining, MCF-7 xenograft tumors; assay type: in vivo, mice; details: MCF-7 model, HBB 4 mg/kg/day ip vs PBS
Experimental: (§1) Xenogaft tumors from the MCF-7 and MDA-MB-231 models were tested for inhibition of angiogenesis by HBB using CD31 staining.
(§2) The samples were cryosectioned at 6 um and fixed with chilled 100% acetone for 10 minutes. Samples were blocked with 3% donkey serum in PBS for 30 minutes at 37 C.
(§3) The antibody used to stain CD-31 was from BD Pharmingen PE Rat anti Mouse CD31, catalog number 553373. It was used at a dilution of 1:50 in blocking buffer for 1 hour at 37 C.
(§4) The samples were then stained for 10 minutes with DAPI at a concentration of 1:2000, from Life Technologies, catalog number D1306.
(§5) Each sample was imaged in 4-5 areas. There were 3 samples per condition, PBS vs HBB.

MDA-MB-231 line = assay: 14,15-EET protection against biguanide growth inhibition, MTT, MDA-MB-231; assay type: cell-based; details: MDA-MB-231, 1 uM 14,15-EET, 24 hours
Experimental: Cells were plated in complete media in the presence of serum (10% FBS) and cultured at 37° C. with 5% CO2 and treated with HBB for 24 hours in the presence and absence of 1 uM 14,15-EET. Growth was then measured at 24 hours by MTT assay.
Results are expressed as mean±standard deviation (n=8).

MDA-MB-231 = assay: ROS production, DCFDA flow cytometry, MDA-MB-231; assay type: cell-based; details: MDA-MB-231, 20 uM HBB
Experimental: (§6) FIG. 33 illustrates that HBB induces reactive oxygen species (ROS) production in MCF7 and MDA-MB-231 lines. Cells in log phase growth in complete media were trypsinized and resuspended in complete media containing 20 uM DCFDA. After incubation at 37° C. for 30 minutes, cells were treated with 20 uM HBB or DMSO for 2.5 hours and analyzed by flow cytometer, monitoring fluorescence at 525 nm. Results are represented as histograms of cell count vs fluorescence intensity.

MCF-7 xenograft = MCF-7 xenograft in nude mice; assay type: in vivo; details: HBB 4 mg/kg ip daily vs PBS/vehicle
Experimental: FIG. 3A. MCF-7 xenograft with 3×10^6 cells in the 2nd mammary fat pad on day 0. HBB (4 mg/kg ip daily) (ν) or PBS (ρ) treatment began on day 1. * indicates P<0.05. FIG. 3B. MDAMB-231 xenograft with 1×10^6 cells in the 2nd mammary fat pad on day 0. HBB (4 mg/kg ip daily) (ν) or PBS (ρ) treatment began on day 1. N=20 mice per arm for each study; error bars are SEM.
MCF-7 cells were implanted in the mammary fat pad of 4-5 week mice and treatment was initiated when tumor size was ≥15 mm^3 by 2 sequential measurements with randomized assignment to the treatment arms.
FIG. 44A. Nude mice were inoculated with 3×10^6 MCF-7 cells and treated with vehicle (Δ) HBB at the MTD (4 mg/kg/day ip) (▪). (* indicates P<0.05). Error bars are SEM. […] The dose limiting toxicity was weight loss. At the MTD there was a well-tolerated 4% reduction of weight at 42 days (P<0.0001; data not shown). FIG. 44B. Nude mice were inoculated with 1×10^6MDA-MB-231 cells and treated with HBB at the MTD (4 mg/kg/day ip).

CYP3A4D3-24 = CYP3A4D3-24 (Homo sapiens, UniProt P08684); assay: Spectral binding (spin shift) to CYP3A4D3-24; details: vs metformin
CD31 [2] = assay: Angiogenesis by CD31 staining, MDA-MB-231 xenograft tumors; assay type: in vivo, mice; details: MDA-MB-231 model, HBB 4 mg/kg/day ip vs PBS
Experimental: as §1, §2, §3, §4, §5

MCF7 = assay: ROS production, DCFDA flow cytometry, MCF7; assay type: cell-based; details: MCF7, 20 uM HBB
Experimental: as §6

MCF7 line = assay: 14,15-EET protection against biguanide growth inhibition, MTT, MCF7; assay type: cell-based; details: MCF-7, exogenous (±)-14,15-EET (1 uM)
Experimental: Cells were plated in complete media in the presence of serum (10% FBS) and cultured at 37° C. with 5% CO2 and treated with biguanides for 24 hours in the presence or absence of 1 uM 14,15-EET. Growth was then measured at 24 hour by MTT assay.

[3] = system: breast cancer cells and primary cells; assay: OCR and ECAR, XF Extracellular Flux Analyzer; assay type: cell-based; details: HBB 20 uM or 40 uM vs DMSO
Experimental: Measuring glycolysis and oxidative metabolism. Cells were maintained in growth medium consisting of 10% FBS, at 37° C. with 5% CO2 and seeded at 100,000 cells per well in XF24-well cell culture microplates (for primary cells HUVEC and HDMVEC, plates were pre-coated with 0.2% college before seeding). Concentrated stocks of HBB was prepared in DMSO. HBB was diluted to 10× working concentration in XF assay medium (a non-buffered medium including 2 mM of L-glutamine but no sodium bicarbonate (buffering agent), glucose, or sodium pyruvate).
Before analysis, the cells were switched from culture medium to XF assay medium. Following baseline measurements, 75 μl of HBB prepared in assay medium was injected into each well to reach final working concentrations. Following the addition of HBB, OCR and ECAR were measured at fixed time interval.
Cells were maintained in growth medium consisting of 10% FBS, at 37° C. with 5% CO2 and seeded at 100,000 cells per well in XF24-well cell culture microplates (for HUVEC, plates were pre-coated with 0.2% college before seeding). Before analysis, the cells were switched from culture medium to XF assay medium. Following baseline measurements, 75 μl of HBB prepared in assay medium was injected into each well to reach final working concentrations. Following the addition of HBB, OCR and ECAR were measured at fixed interval. […]

Chain of CYP3A4D3-24 (P08684 with tags, fused parts or gaps): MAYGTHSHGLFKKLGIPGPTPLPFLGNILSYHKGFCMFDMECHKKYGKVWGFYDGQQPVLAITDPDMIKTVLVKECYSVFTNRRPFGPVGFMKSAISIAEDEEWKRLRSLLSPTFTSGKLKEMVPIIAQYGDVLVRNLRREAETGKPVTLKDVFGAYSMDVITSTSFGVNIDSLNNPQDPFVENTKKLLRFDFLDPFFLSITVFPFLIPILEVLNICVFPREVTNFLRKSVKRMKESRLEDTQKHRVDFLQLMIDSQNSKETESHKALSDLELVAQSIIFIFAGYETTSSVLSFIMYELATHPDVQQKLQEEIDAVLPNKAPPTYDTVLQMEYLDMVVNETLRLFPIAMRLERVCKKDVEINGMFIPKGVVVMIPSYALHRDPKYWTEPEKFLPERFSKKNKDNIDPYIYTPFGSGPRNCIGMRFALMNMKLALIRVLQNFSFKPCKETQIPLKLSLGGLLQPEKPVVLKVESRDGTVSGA

CCCCCCNC(=N)NC(=N)NCc1ccccc1 [HBB, N1-hexyl-N5-benzyl biguanide] was tested. Which “angiogenesis (CD31 staining)” value (CD31 [1]) did it give?
Its value is “inhibited angiogenesis in both models”.

What about the “rescue of MDA-MB-231 growth by 14,15-EET in the presence of the biguanide” value (MDA-MB-231 line) of the same compound?
Its value is “no protection”.

What about the “ROS production relative to DMSO” value (MDA-MB-231) of the same compound?
The value was “induced significant ROS production”.

And the “tumor growth, MCF-7 xenograft” value (MCF-7 xenograft)?
The value was “significant reduction in early engraftment/tumor growth; also recorded: only in the MCF-7 model; also recorded: inhibits the ER+ MCF-7”.

And the “fold more potent than metformin, delta 3-24 CYP3A4 spin shift” value (CYP3A4D3-24)?
Its value is roughly 12 fold.

And the “angiogenesis (CD31 staining)” value (CD31 [2])?
The value was “inhibited angiogenesis in both models”.

And the “ROS production relative to DMSO” value (MCF7)?
The value was “induced significant ROS production”.

What about the “rescue of MCF-7 growth by 14,15-EET in the presence of the biguanide” value (MCF7 line) of the same compound?
Its value is “partially restores growth; also recorded: partial rescue”.

What about the “extracellular acidification rate (ECAR)” value [3] of the same compound?
Its value is “inhibits both OCR and ECAR”.

What about the “oxygen consumption rate (OCR)” value [3] of the same compound?
The value was “inhibits oxygen consumption rate (OCR); also recorded: inhibits both OCR and ECAR”.
